Tested on: BALB/c mice
Test: Treatment of 16/6Id-induced experimental SLE in BALB/c mice
Assay type: in vivo
Conditions: for mice with immune complex deposits in kidneys: 7 months after booster, untreated 9/10; for Anti-dsDNA O.D. (1:50), Mean ± SD: 16/6Id injected 1.1 ± 0.6; for Anti-dsDNA antibodies at a dilution of: 1:250, Mean ± SD: 16/6Id alone 1.16 ± 0.37; for Intensity of ICD In kidneys, Mean ± SD: 16/6Id alone 1.86 ± 0.38; for Anti-16/6 Id antibodies at a dilution of 1:1000, Mean ± SD: 16/6Id alone 2.55 ± 0.09; for Anti-dsDNA antibodies 1:1250, Mean ± SD: 16/6Id alone 0.47 ± 0.3; for Anti-16/6 Id antibodies 1:10000, Mean ± SD: 16/6Id alone 0.89 ± 0.1
Method: Induction and treatment of experimental SLE. In order to induce experimental SLE, BALB/c mice were immunized with 1-2 μg of the human mAb 16/6Id and boosted 3 weeks later. For the prevention of experimental SLE, mice were given hCDR1 or hCDR3 (mCDR1 or revmCDR1 as control peptide in Example 12) intravenously (i.v.) or s.c. concomitant with the immunization, and were injected weekly thereafter for 5 weeks. Treatment of an established disease started three and a half months following disease induction with the 16/6Id, when clinical manifestations were already observed. In Example 12, mice received 10 weekly injections (i.v. or s.c.) of mCDR1 or revmCDR1 at a dose of 100 μg/mouse. Prevention and treatment of SLE-like disease in (NZB×NZW)F1 mice with the hCDR1 or mCDR1 peptide. For prevention of SLE, mice at the age of 2 months, before disease manifestations are observed, were injected s.c. with hCDR1 (or mCDR1 in Example 12, 250 μg/mouse) once a week for 10 weeks. To treat an established disease, mice at the age of 5-7 months were injected with hCDR1 (in Example 12, mCDR1 s.c., 250 μg/mouse) once a week for 10 weeks. Proliferative Responses. PBL were isolated from heparinized venous blood by Ficoll-Hypaque (Pharmacia) density-gradient centrifugation. All assays were performed, in triplicate, in flat-bottomed microtiter plates (Falcon, Becton Dickinson, Oxmard, Calif., USA) in which 2×10^5 PBL were cultured in enriched RPMI-1640 as described (Dayan et al., 2000). The PBL were exposed to various concentrations (0.1-40 μg/well) of the human anti-DNA 16/6Id mAb with and without the addition of the various CDR-based peptides at a concentration of at least 10-fold excess over that of the 16/6Id. Phytohemagglutinin (PHA; 2 μg/well) was used as a control for culture conditions at each experiment. The cultures were incubated in 7.5% CO2 at 37° C. for 6 days. Eighteen hours before the cells were harvested, [^3H]-thymidine (0.5μ Ci of 5 Ci/mmol) (Nuclear Research Center, Negev, Israel) was added to all cultures. Results are expressed as the mean thymidine incorporation in counts per minute (CPM) of triplicate culture±SD, or as stimulation index (S.I.; the ratio of mean CPM at the optimal concentration of the human 16/6Id to the mean CPM in the presence of medium alone). A S.I.≧2 was considered a positive response (Dayan et al., 2000). Inhibition (the ratio of mean CPM in the presence of the 16/6Id and various CDR-based peptides to the mean CPM with the 16/6Id without the CDR-based peptide) above 50% was considered positive. Induction of Cytokine Production. Mice that were immunized with the human 16/6Id mAb and either treated or not with the CDR-based peptide, were killed at different periods during or after treatment with the peptide. Splenocytes and lymph node cells (LNC) were harvested and incubated (5×10^6/ml) in the presence of the 16/6Id. Supernatants were collected after 48 and 72 h. Assessment of Cytokines in the Supernatants. Supernatants were collected 48 hours following the initiation of the cultures and stored at −70° C. Measurements of IL-2, IL-10, IFN-γ, and TNF-α were performed by ELISA by using the relevant standards, capture and detecting Abs (Pharmingen) according to the manufacturer's instructions. TGF-β was determined by an ELISA. Briefly, plates were coated with the recombinant human TGF-β1 sRIII/Fc chimera (R & D Systems Inc., Minneapolis, Minn., USA), and the second Ab used was the biotinylated anti-human TGF-β1 antibody (R & D Systems Inc.). The substrate solution used was TMB color Reagent (Helix Diagnostics, West Sacramento, Calif.), and enzyme activity was evaluated by using 570- and 630-nm filters. Detection of SLE-Associated Clinical and Pathological Manifestations. Proteinuria was measured semiquantitatively by using Combistix kit (Ames Division, Bayer Diagnostics, Newbury, U.K.). White blood cells (WBC, for leukopenia) were counted after a 10-fold dilution of heparinized blood in distilled water containing 1% acetic acid (vol/vol). […]

[1] = Table 11, 200 μg/mouse for 10 weeks
[2] = Table 11, 300 μg/mouse for 10 weeks
[3] = Table 11, 400 μg/mouse for 10 weeks

Sequence: GYYWSWIRQPPGKGEEWIG (Human) [hCDR1, 19-mer peptide based on the CDR1 of the heavy chain of the human 16/6Id mAb]
- mice with immune complex deposits in kidneys (100 μg/mouse): 3/10
- mice with immune complex deposits in kidneys (300 μg/mouse for 10 weeks): 2/9
- Proteinuria g/l, Mean ± SD (Table 10, 100 μg, end of treatment, 16/6Id injected 0.65 ± 0.36): 0.3 ± 0.02 g/L
- Anti-dsDNA O.D. (1:50), Mean ± SD (Table 10, 100 μg, end of treatment): 0.3 ± 0.2 O.D.
- WBC/mm^3, Mean ± SD (Table 10, 100 μg, end of treatment, 16/6Id injected 3260 ± 920): 6090 ± 2160 /mm^3
- Proteinuria g/l, Mean ± SD (Table 10, 300 μg, end of treatment, 16/6Id injected 0.65 ± 0.36): 0.34 ± 0.25 g/L
- Anti-dsDNA O.D. (1:50), Mean ± SD (Table 10, 300 μg, end of treatment): 0.55 ± 0.3 O.D.
- WBC/mm^3, Mean ± SD (Table 10, 300 μg, end of treatment, 16/6Id injected 3260 ± 920): 5890 ± 2660 /mm^3
- Proteinuria g/l, Mean ± SD (Table 11, 200 μg/mouse for 10 weeks, 16/6Id alone 0.5 ± 0.34): 0.13 ± 0.16 g/L
- Anti-dsDNA antibodies at a dilution of: 1:250, Mean ± SD [1]: 0.69 ± 0.39
- Intensity of ICD In kidneys, Mean ± SD [1]: 0.57 ± 0.97
- Anti-16/6 Id antibodies at a dilution of 1:1000, Mean ± SD [1]: 2.7 ± 0.12
- WBC/mm^3, Mean ± SD (Table 11, 200 μg/mouse for 10 weeks, 16/6Id alone 2871 ± 1205): 5625 ± 1659 /mm^3
- Proteinuria g/l, Mean ± SD (Table 11, 300 μg/mouse for 10 weeks, 16/6Id alone 0.5 ± 0.34): 0.16 ± 0.16 g/L
- Anti-dsDNA antibodies at a dilution of: 1:250, Mean ± SD [2]: 0.45 ± 0.24
- Intensity of ICD In kidneys, Mean ± SD [2]: 0.75 ± 0.71
- Anti-16/6 Id antibodies at a dilution of 1:1000, Mean ± SD [2]: 2.8 ± 0.11
- WBC/mm^3, Mean ± SD (Table 11, 300 μg/mouse for 10 weeks, 16/6Id alone 2871 ± 1205): 4677 ± 1508 /mm^3
- Proteinuria g/l, Mean ± SD (Table 11, 400 μg/mouse for 10 weeks, 16/6Id alone 0.5 ± 0.34): 0.11 ± 0.15 g/L
- Anti-dsDNA antibodies at a dilution of: 1:250, Mean ± SD [3]: 0.8 ± 0.39
- Intensity of ICD In kidneys, Mean ± SD [3]: 0.71 ± 0.76
- Anti-16/6 Id antibodies at a dilution of 1:1000, Mean ± SD [3]: 2.75 ± 0.1
- WBC/mm^3, Mean ± SD (Table 11, 400 μg/mouse for 10 weeks, 16/6Id alone 2871 ± 1205): 4012 ± 1421 /mm^3
- Anti-dsDNA antibodies 1:1250, Mean ± SD (Table 12, 200 μg/mouse weekly): 0.23 ± 0.1
- Proteinuria g/l, Mean ± SD (Table 12, 200 μg/mouse weekly, 16/6Id alone 0.58 ± 0.34): 0.17 ± 0.15 g/L
- Anti-16/6 Id antibodies 1:10000, Mean ± SD (Table 12, 200 μg/mouse weekly): 0.96 ± 0.2
- Intensity of ICD in kidneys, Mean ± SD (Table 12, 200 μg/mouse weekly, 16/6Id alone 1.6 ± 0.55): 1 ± 0.63
- WBC/mm^3, Mean ± SD (Table 12, 200 μg/mouse weekly, 16/6Id alone 2800 ± 300): 4900 ± 800 /mm^3
- Anti-dsDNA antibodies 1:1250, Mean ± SD (Table 12, 300 μg/mouse weekly): 0.2 ± 0.1
- Proteinuria g/l, Mean ± SD (Table 12, 300 μg/mouse weekly, 16/6Id alone 0.58 ± 0.34): 0.085 ± 0.01 g/L
- Anti-16/6 Id antibodies 1:10000, Mean ± SD (Table 12, 300 μg/mouse weekly): 0.93 ± 0.1

Source: patent US7858738B2, “Synthetic human peptides and pharmaceutical compositions comprising them for the treatment of systemic lupus erythematosus” (Yeda Research and Development Co., Ltd., priority 2001, dated 2010)
